# PubChem BioAssay AID1918958 (Molecular Pharmacology Branch, DTP, NCI, 2023)
# Test system: NCI-H196 complex spheroid viability
# Experiment: Anticancer human tumor NCI-H196 cell line growth inhibition [LSD1];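 further: spheroids exposed to agents for 7 days before readout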;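 on viability, T/C: 100% = DMSO vehicle control viability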
# Settings: for IC50: curve of first compound; for viability, T/C: stronger effect = lower value
# In short: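 Complex spheroids of tumor cells with HUVEC and human MSCs, exposed to iadademstat combined with other agents. Each agent tested in half-log steps from near clinical Cmax (else 10 microM top), DMSO ≤0.25%.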
smiles,measurement,setting,value
O=C(C=Cn1cnc(-c2cc(C(F)(F)F)cc(C(F)(F)F)c2)n1)NNc1cnccn1 + NC1CC1c1ccc(-c2cccc(O)c2)cc1,IC50,second compound 0.1 µM,< 3.16 nM
same,IC50,second compound 0.316 µM,< 3.16 nM
same,IC50,second compound 1 µM,< 3.16 nM
same,IC50,second compound 3.16 µM,< 3.16 nM
same,IC50,second compound 10 µM,< 3.16 nM
same,"viability, T/C","second compound 0.1 µM, first compound 0.00316 µM",32.5%
same,"viability, T/C","second compound 0.1 µM, first compound 0.01 µM",27.1%
same,"viability, T/C","second compound 0.1 µM, first compound 0.0316 µM",19.8%
same,"viability, T/C","second compound 0.1 µM, first compound 0.1 µM",14.6%
same,"viability, T/C","second compound 0.1 µM, first compound 0.316 µM",10.4%
same,"viability, T/C","second compound 0.1 µM, first compound 1 µM",7.16%
same,"viability, T/C","second compound 0.316 µM, first compound 0.00316 µM",33.1%
same,"viability, T/C","second compound 0.316 µM, first compound 0.01 µM",25.6%
same,"viability, T/C","second compound 0.316 µM, first compound 0.0316 µM",20.7%
same,"viability, T/C","second compound 0.316 µM, first compound 0.1 µM",12.4%
same,"viability, T/C","second compound 0.316 µM, first compound 0.316 µM",10.7%
same,"viability, T/C","second compound 0.316 µM, first compound 1 µM",8.26%
same,"viability, T/C","second compound 1 µM, first compound 0.00316 µM",31.3%
same,"viability, T/C","second compound 1 µM, first compound 0.01 µM",31.5%
same,"viability, T/C","second compound 1 µM, first compound 0.0316 µM",19.6%
same,"viability, T/C","second compound 1 µM, first compound 0.1 µM",12.1%
same,"viability, T/C","second compound 1 µM, first compound 0.316 µM",10.6%
same,"viability, T/C","second compound 1 µM, first compound 1 µM",9.55%
same,"viability, T/C","second compound 3.16 µM, first compound 0.00316 µM",45.6%
same,"viability, T/C","second compound 3.16 µM, first compound 0.01 µM",31.5%
same,"viability, T/C","second compound 3.16 µM, first compound 0.0316 µM",15.9%
same,"viability, T/C","second compound 3.16 µM, first compound 0.1 µM",14%
same,"viability, T/C","second compound 3.16 µM, first compound 0.316 µM",10.2%
same,"viability, T/C","second compound 3.16 µM, first compound 1 µM",10.3%
same,"viability, T/C","second compound 10 µM, first compound 0.00316 µM",36.2%
same,"viability, T/C","second compound 10 µM, first compound 0.01 µM",29.2%
same,"viability, T/C","second compound 10 µM, first compound 0.0316 µM",18.3%
same,"viability, T/C","second compound 10 µM, first compound 0.1 µM",15.9%
same,"viability, T/C","second compound 10 µM, first compound 0.316 µM",12.4%
same,"viability, T/C","second compound 10 µM, first compound 1 µM",11.9%
